Experimental findings from ChEMBL document CHEMBL1149496, “Dissecting the determinants of cyclin-dependent kinase 2 and cyclin-dependent kinase 4 inhibitor selectivity” (J Med Chem, 2006) are described below.

This assay concerns the target Cyclin-dependent kinase 4 (Homo sapiens, UniProt P11802). Put plainly: Inhibition of CDK4.

Usually IC50 stands for the point on the concentration scale where inhibition reaches its midpoint. High values mean a need for much substance, low ones inhibition by little substance.

Sequence of Cyclin-dependent kinase 4 (P11802 whole entry): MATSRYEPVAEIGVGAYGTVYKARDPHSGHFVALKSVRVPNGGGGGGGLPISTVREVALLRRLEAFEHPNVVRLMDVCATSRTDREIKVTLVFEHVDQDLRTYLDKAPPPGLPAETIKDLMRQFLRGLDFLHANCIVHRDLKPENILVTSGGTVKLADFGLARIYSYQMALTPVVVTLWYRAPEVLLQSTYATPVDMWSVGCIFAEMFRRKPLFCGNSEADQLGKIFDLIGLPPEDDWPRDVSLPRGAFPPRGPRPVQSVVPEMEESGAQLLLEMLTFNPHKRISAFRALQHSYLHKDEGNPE

`Cc1ccc(Cl)c(N(CC#N)c2cc(Nc3ccc(OC[C@@H](O)CN(C)C)cc3)ncn2)c1` gave a concentration for half-maximal inhibition (IC50) of 47 nM.
